These are literature values, as cited in patent publication US20020111317A1, “Sixteen-membered macrolide compounds” (priority 2000, published 2002).

The Kd is a measure of binding affinity in units of concentration.

One data set deals with wildtype ribosomes. As to conditions: read-out: Kd using wildtype ribosomes.
For data set [1], the target named is methylated ribosome (e.g., A2058G mutant). As to conditions: read-out: Kd using methylated ribosome.

As to `CC[C@H]1OC(=O)[C@H](C)[C@@H](O[C@H]2C[C@@](C)(OC)[C@@H](O)[C@H](C)O2)[C@H](C)[C@@H](O[C@@H]2O[C@H](C)C[C@H](N(C)C)[C@H]2O)[C@](C)(O)C[C@@H](C)C(=O)[C@H](C)[C@@H](O)[C@]1(C)O` [erythromycin A], the Kd is around 0.014 µM at wildtype ribosomes and around 190 µM in data set [1].
With `CC[C@H]1OC(=O)[C@H](C)C(=O)[C@H](C)[C@@H](O[C@@H]2O[C@H](C)C[C@H](N(C)C)[C@H]2O)[C@](C)(OC)C[C@@H](C)C(=O)[C@H](C)[C@H]2N(CCCCn3cnc(-c4cccnc4)c3)C(=O)O[C@]12C` [telithromycin], the values for the Kd (on wildtype ribosomes; in data set [1]) were around 0.0013 µM and around 0.058 µM, respectively.
